From patent US10874743B2, “IRAK degraders and uses thereof” (Kymera Therapeutics, Inc., priority 2017, dated 2020)

Molecular target: T1, IRAK4 (Homo sapiens, UniProt Q9NWZ3)
T1 sequence (Q9NWZ3 1-460): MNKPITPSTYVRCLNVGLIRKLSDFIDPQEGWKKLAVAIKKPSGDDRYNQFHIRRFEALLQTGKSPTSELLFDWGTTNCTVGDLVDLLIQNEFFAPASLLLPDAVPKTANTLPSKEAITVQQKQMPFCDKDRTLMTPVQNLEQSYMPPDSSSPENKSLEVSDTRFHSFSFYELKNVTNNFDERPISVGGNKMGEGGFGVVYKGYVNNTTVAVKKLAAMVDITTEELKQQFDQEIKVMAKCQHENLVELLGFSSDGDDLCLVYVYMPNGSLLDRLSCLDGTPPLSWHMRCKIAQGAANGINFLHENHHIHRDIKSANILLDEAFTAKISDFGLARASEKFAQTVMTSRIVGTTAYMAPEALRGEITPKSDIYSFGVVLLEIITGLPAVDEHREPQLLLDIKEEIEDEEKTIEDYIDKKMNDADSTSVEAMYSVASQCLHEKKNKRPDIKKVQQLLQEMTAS
Assay: OCI-LY-10 degradation assay (western blot, % IRAK4 degraded after 4 hours)
Format: cell-based
Set-up: endogenous in cells; host or cells: OCI-LY10
Settings: OCI-LY10 cells; for OCI-LY10 % IRAK4 Degradation: IRAK4 degraded after 4 hours, western blot; for OCI-LY10 % IRAK4 Degradation (0.01 uM) / OCI-LY10 % IRAK4 Degradation (0.1 uM) / OCI-LY10 % IRAK4 Degradation (1 uM): 4 hours; for OCI-LY10 % IRAK4 Degradation (0.01 uM): 0.01 uM compound; for OCI-LY10 % IRAK4 Degradation (0.1 uM): 0.1 uM compound; for OCI-LY10 % IRAK4 Degradation (1 uM): 1 uM compound
Method in brief: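 OCI-LY10 cells (RPMI-1640, 20% FBS, 55 μM 2-ME) treated with compound at 0.003-10 μM final for 4 h at 37° C, then lysed in RIPA buffer. IRAK4 level read by fluorescent western blot (20-25 μg protein) and binned as % degraded: A >50%, B >20-50%, C <20%.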

N#Cc1cnc2c(cnn2-c2cc(NC3CC3)c(C(=O)N[C@H]3CC[C@H](C(=O)NCCOCCOCCOCCNC(=O)COc4cccc5c4C(=O)N(C4CCC(=O)NC4=O)C5=O)CC3)cn2)c1 (stereo partly drawn) [I-17]
OCI-LY10 % IRAK4 Degradation: C (<20% degradation)

CC[C@@H]1[C@H](F)C(=O)N[C@@H]1COc1nccc2cc(C(=O)NCCOCCOCCNc3cccc4c3C(=O)N(C3CCC(=O)NC3=O)C4=O)c(OC)cc12 (stereo partly drawn) [I-87]
OCI-LY10 % IRAK4 Degradation: C (<20% degradation)

Cn1c(=O)n(C2CCC(=O)NC2=O)c2cccc(CCCOCCOCCNC(=O)c3ccc(-n4cc(NC(=O)c5coc(-c6ccnc(NCC(F)(F)F)c6)n5)c(C(N)=O)n4)cc3)c21 (stereo not drawn) [I-249]
OCI-LY10 % IRAK4 Degradation (0.01 uM): C (<20% degradation)
OCI-LY10 % IRAK4 Degradation (0.1 uM): A (>50% degradation)
OCI-LY10 % IRAK4 Degradation (1 uM): A (>50% degradation)

NC(=O)c1nn(-c2ccc(C(=O)NCC3CN(CCOCCNc4cccc5c4C(=O)N(C4CCC(=O)NC4=O)C5=O)CCO3)cc2)cc1NC(=O)c1coc(-c2ccnc(NCC(F)(F)F)c2)n1 (stereo not drawn) [I-151]
OCI-LY10 % IRAK4 Degradation: A (>50% degradation)

CN(CCOCCCc1cccc2c1C(=O)N(C1CCC(=O)NC1=O)C2=O)Cc1ccc(-n2cc(NC(=O)c3coc(-c4ccnc(NCC5CC5)c4)n3)c(C(F)F)n2)cc1 (stereo not drawn) [I-362]
OCI-LY10 % IRAK4 Degradation (0.01 uM): C (<20% degradation)
OCI-LY10 % IRAK4 Degradation (0.1 uM): B (>20-50% degradation)
OCI-LY10 % IRAK4 Degradation (1 uM): A (>50% degradation)

O=C1CCC(N2C(=O)c3cccc(NCCOCCOCCOCC(F)CNC(=O)c4cnc(Nc5ccc6ncsc6c5)cc4NC4CC4)c3C2=O)C(=O)N1 (stereo not drawn) [I-54]
OCI-LY10 % IRAK4 Degradation: C (<20% degradation)

O=C1CCC(N2C(=O)c3cccc(CNCc4ccc(-n5cc(NC(=O)c6coc(-c7ccncc7)n6)c(C(F)F)n5)cc4)c3C2=O)C(=O)N1 (stereo not drawn) [I-359]
OCI-LY10 % IRAK4 Degradation (0.01 uM): C (<20% degradation)
OCI-LY10 % IRAK4 Degradation (0.1 uM): C (<20% degradation)
OCI-LY10 % IRAK4 Degradation (1 uM): C (<20% degradation)

O=C1CCC(N2C(=O)c3cccc(CCCNCCCCCNC(=O)c4ccc(-n5cc(NC(=O)c6coc(-c7ccnc(NCC8CC8)c7)n6)c(C(F)(F)F)n5)cc4)c3C2=O)C(=O)N1 (stereo not drawn) [I-221]
OCI-LY10 % IRAK4 Degradation (0.01 uM): B (>20-50% degradation)
OCI-LY10 % IRAK4 Degradation (0.1 uM): B (>20-50% degradation)
OCI-LY10 % IRAK4 Degradation (1 uM): A (>50% degradation)

NC(=O)c1nn(CCCCCCOCCOCCNc2cccc3c2C(=O)N(C2CCC(=O)NC2=O)C3=O)cc1NC(=O)c1coc(-c2ccnc(NCC3CC3)c2)n1 (stereo not drawn) [I-435, N-[3-carbamoyl-1-[6-[2-[2-[[2-(2,6-dioxo-3-piperidyl)-1,3-dioxo-isoindolin-4-yl]amino]ethoxy]ethoxy]hexyl]pyrazol-4-yl]-2-[2-(cyclopropylmethylamino)-4-pyridyl]oxazole-4-carboxamide]
OCI-LY10 % IRAK4 Degradation (0.01 uM): C (<20% degradation)
OCI-LY10 % IRAK4 Degradation (0.1 uM): C (<20% degradation)
OCI-LY10 % IRAK4 Degradation (1 uM): C (<20% degradation)

Cc1ncsc1-c1ccc(CNC(=O)C2C[C@@H](O)CN2C(=O)[C@@H](NC(=O)COCCOCCOCCOCCOC(C)C(F)CNC(=O)c2cnc(-n3ncc4cc(C#N)cnc43)cc2NC2CC2)C(C)(C)C)cc1 (stereo partly drawn) [I-121]
OCI-LY10 % IRAK4 Degradation: C (<20% degradation)

O=C1CCC(N2C(=O)c3cccc(NCCOCCOCCOCCOCCn4cc(NC(=O)c5coc(-c6ccnc(NCC7CC7)c6)n5)c(C(F)F)n4)c3C2=O)C(=O)N1 (stereo not drawn) [I-254]
OCI-LY10 % IRAK4 Degradation (0.01 uM): C (<20% degradation)
OCI-LY10 % IRAK4 Degradation (0.1 uM): C (<20% degradation)
OCI-LY10 % IRAK4 Degradation (1 uM): B (>20-50% degradation)

O=C1CCC(N2C(=O)c3ccc(NCCc4cnnn4CCOCCOCCNCc4ccc(-n5cc(NC(=O)c6coc(-c7ccnc(NCC8CC8)c7)n6)c(C(F)F)n5)cc4)cc3C2=O)C(=O)N1 (stereo not drawn) [I-343]
OCI-LY10 % IRAK4 Degradation (0.01 uM): C (<20% degradation)
OCI-LY10 % IRAK4 Degradation (0.1 uM): B (>20-50% degradation)
OCI-LY10 % IRAK4 Degradation (1 uM): A (>50% degradation)

NC(=O)[C@@H](O)C[C@H]1CCc2sc3ncnc(O[C@H]4CC[C@H](N5CCN(CCOCCNc6cccc7c6C(=O)N(C6CCC(=O)NC6=O)C7=O)CC5)CC4)c3c21 (stereo partly drawn) [I-184, T(2R)-3-[(8R)-1-[4-[4-[2-[2-[[2-(2,6-dioxo-3-piperidyl)-1,3-dioxo-isoindolin-4-yl]amino]V ethoxy]ethyl]piperazin-1-yl]cyclohexoxy]-7,8-dihydro-6H-cyclopenta[4,5]thieno[1,2-c]pyrimidin-8-yl]-2-hydroxy-propanamide]
OCI-LY10 % IRAK4 Degradation: C (<20% degradation)

N#Cc1cnc2c(cnn2-c2cc(NC3CC3)c(-c3cn(CCOCCOCCOCCOCCOCCNc4cccc5c4C(=O)N(C4CCC(=O)NC4=O)C5=O)nn3)cn2)c1 (stereo not drawn) [I-176, 1-[4-(Cyclopropylamino)-5-[1-[2-[2-[2-[2-[2-[2-[[2-(2,6-dioxo-3-piperidyl)-1,3-dioxo-isoindolin-4-yl]amino]ethoxy]ethoxy]ethoxy]ethoxy]ethoxy]ethyl]triazol-4-yl]-2-pyridyl]pyrazolo[3,4-b]pyridine-5-carbonitrile]
OCI-LY10 % IRAK4 Degradation: C (<20% degradation)

NC(=O)c1nn(-c2ccc(C(=O)NCCOCCOCCNc3cccc4c3C(=O)N(C3CCC(=O)NC3=O)C4=O)cc2)cc1NC(=O)c1coc(-c2ccnc(NCC3CC3)c2)n1 (stereo not drawn) [I-138]
OCI-LY10 % IRAK4 Degradation: A (>50% degradation)

NC(=O)c1nn(-c2ccc(CNCCCc3ccc4c(c3)C(=O)N(C3CCC(=O)NC3=O)C4=O)cc2)cc1NC(=O)c1coc(-c2ccncc2)n1 (stereo not drawn) [I-372]
OCI-LY10 % IRAK4 Degradation (0.01 uM): C (<20% degradation)
OCI-LY10 % IRAK4 Degradation (0.1 uM): C (<20% degradation)
OCI-LY10 % IRAK4 Degradation (1 uM): C (<20% degradation)

CC[C@@H]1[C@H](F)C(=O)N(CCOCCOCCOCCOCCNc2cccc3c2C(=O)N(C2CCC(=O)NC2=O)C3=O)[C@@H]1COc1nccc2cc(C(N)=O)c(OC)cc12 (stereo partly drawn) [I-89, 1-[[(2S,3S,4S)-1-[2-[2-[2-[2-[2-[[2-(2,6-dioxo-3-piperidyl)-1,3-dioxo-isoindolin-4-yl]amino]ethoxy]ethoxy]ethoxy]ethoxy]ethyl]-3-ethyl-4-fluoro-5-oxo-pyrrolidin-2-yl]methoxy]-7-methoxy-isoquinoline-6-carboxamide]
OCI-LY10 % IRAK4 Degradation: C (<20% degradation)

NC(=O)c1nn(-c2ccc(C(=O)NCCCCCNCCNc3cccc4c3C(=O)N(C3CCCNC3=O)C4=O)cc2)cc1NC(=O)c1coc(-c2ccnc(NCC(F)(F)F)c2)n1 (stereo not drawn) [I-333]
OCI-LY10 % IRAK4 Degradation (0.01 uM): C (<20% degradation)
OCI-LY10 % IRAK4 Degradation (0.1 uM): C (<20% degradation)
OCI-LY10 % IRAK4 Degradation (1 uM): C (<20% degradation)

O=C1CCC(N2C(=O)c3cccc(NCCCCCNCCNC(=O)c4ccc(-n5cc(NC(=O)c6coc(-c7ccnc(NCC8CC8)c7)n6)c(C(F)F)n5)cc4)c3C2=O)C(=O)N1 (stereo not drawn) [I-245]
OCI-LY10 % IRAK4 Degradation (0.01 uM): C (<20% degradation)
OCI-LY10 % IRAK4 Degradation (0.1 uM): B (>20-50% degradation)
OCI-LY10 % IRAK4 Degradation (1 uM): A (>50% degradation)

CN(CCCCCNCCCc1cccc2c1C(=O)N(C1CCC(=O)NC1=O)C2=O)C(=O)c1ccc(-n2cc(NC(=O)c3coc(-c4ccnc(NCC5CC5)c4)n3)c(C(N)=O)n2)cc1 (stereo not drawn) [I-315]
OCI-LY10 % IRAK4 Degradation (0.01 uM): C (<20% degradation)
OCI-LY10 % IRAK4 Degradation (0.1 uM): C (<20% degradation)
OCI-LY10 % IRAK4 Degradation (1 uM): B (>20-50% degradation)

NC(=O)c1nn(-c2ccc(CNCCOCCOCCOCCCc3cccc4c3CN(C3CCC(=O)NC3=O)C4=O)cc2)cc1NC(=O)c1coc(-c2ccnc(NCC3CC3)c2)n1 (stereo not drawn) [I-325]
OCI-LY10 % IRAK4 Degradation (0.01 uM): B (>20-50% degradation)
OCI-LY10 % IRAK4 Degradation (0.1 uM): A (>50% degradation)
OCI-LY10 % IRAK4 Degradation (1 uM): A (>50% degradation)

N#Cc1cnc2c(cnn2-c2cc(NC3CC3)c(C(=O)N[C@H]3CC[C@H](COCCOCCOCCNc4cccc5c4C(=O)N(C4CCC(=O)NC4=O)C5=O)C3)cn2)c1 (stereo partly drawn) [I-35]
OCI-LY10 % IRAK4 Degradation: C (<20% degradation)

O=C1CCC(N2C(=O)c3cccc(NC4CCN(CCOCCNCc5ccc(-n6cc(NC(=O)c7coc(-c8ccnc(NCC9CC9)c8)n7)c(C(F)F)n6)cc5)CC4)c3C2=O)C(=O)N1 (stereo not drawn) [I-385]
OCI-LY10 % IRAK4 Degradation (0.01 uM): C (<20% degradation)
OCI-LY10 % IRAK4 Degradation (0.1 uM): B (>20-50% degradation)
OCI-LY10 % IRAK4 Degradation (1 uM): B (>20-50% degradation)

NC(=O)c1nn(-c2ccc(C(=O)NCCOCCOCCCc3cccc4c3C(=O)N(C3CCC(=O)NC3=O)C4=O)cc2)cc1NC(=O)c1coc(-c2ccnc(NCC(F)(F)F)c2)n1 (stereo not drawn) [I-233]
OCI-LY10 % IRAK4 Degradation (0.01 uM): C (<20% degradation)
OCI-LY10 % IRAK4 Degradation (0.1 uM): A (>50% degradation)
OCI-LY10 % IRAK4 Degradation (1 uM): A (>50% degradation)

O=C1CCC(N2C(=O)c3cccc(NCCOCCOCCOC[C@H]4C[C@H](NC(=O)c5cnc(Nc6ccc7cnccc7n6)cc5NC5CC5)C4)c3C2=O)C(=O)N1 (stereo partly drawn) [I-31]
OCI-LY10 % IRAK4 Degradation: C (<20% degradation)

CC(OCCOCCOCCNc1cccc2c1C(=O)N(C1CCC(=O)NC1=O)C2=O)C(F)CNC(=O)c1cnc(Nc2ccc3cnccc3n2)cc1NC1CC1 (stereo not drawn) [I-62]
OCI-LY10 % IRAK4 Degradation: C (<20% degradation)
